Results taken from patent US20100120679A1, “Targeting NBS1-ATM Interaction To Sensitize Cancer Cells To Radiotherapy And Chemotherapy” (SOUTHERN RESEARCH INSTITUTE, priority 2006, published 2010).
Peptide text beside a SMILES is read from it. * marks the point of attachment. Biotin = O=C1N[C@H]2[C@H](CS[C@H]2CCCCC(=O)*)N1

How the values were obtained:
HeLa cells = assay: Length of time the peptides remain in cells (degradation, immunofluorescence)
Description: HeLa cells were treated with 10 μM R9, wtNIP, or scNIP for one hour and harvested at indicated time points before they were analyzed by immunofluorescence microscopy staining with an […].
Immunofluorescence microscopy: Exponentially growing cultures of cells were plated on sterile, […] coverslips, and incubated for 24 hours at 37° C. in 5% CO2 humidified air before they are treated with the NIP peptides at room temperature. Coverslips were washed with PBS and fixed with 4% paraformaldehyde-0.25% Triton X-100 for 15 minutes at room temperature, blocked for 30 minutes at room temperature, and incubated with FITC-conjugated streptavidin or anti-γH2AX and phospho-NBS1 antibodies (Rockland Immunochemicals, Gilbertsville, Pa.) for 1 hour at room temperature. Coverslips were then mounted with Vectashield Elite (Vector Labs, Burlingame, Calif.) and observed with a Leica fluorescence microscope. Images were captured at 40× magnification using a Q Imaging Retiga Exi digital camera and analyzed with Image Pro-Plus 5.1 software.
Because the peptides would be used in radiation studies, the length of time the peptides remain in cells was determined to ensure that the peptides would be present throughout the DNA repair process after IR.

NBS1-ATM interaction = biological target: T1, NBS1-ATM interaction (Homo sapiens, UniProt Q13315); assay: Co-immunoprecipitation of ATM with NBS1 in peptide-treated cells; format: cell-based
T1 construct: endogenous in cells; host or cells: HeLa
Description: HeLa cells treated with the NIP peptides were irradiated (0 or 6Gy). Immunoprecipitation was performed with a rabbit NBS1 antibody, and Western blotting was performed with monoclonal antibodies against ATM, NBS1 or MRE11.
Immunoprecipitation and Western blotting: For co-immunoprecipitation of ATM, NBS1 and MRE11, cells were lysed 1 hour in ice-cold lysis buffer, which consisted of 10 mM Tris-HCl (pH 7.5), 100 mM NaCl, 5 mM EDTA, 0.5% NP-40, 5 mM Na3VO4, 1 mM NaF, and 1 mM PMSF. After centrifugation, supernatants were incubated with indicated antibodies. After extensive washing with the lysis buffer, immunoprecipitates were analyzed by immunoblot using specific antibodies. For western blotting analysis, samples (cell lysates or immunoprecipitates) were separated on 4-12% SDS-poly-acrylamide gels, transferred to nitrocellulose membranes, and probed with various antibodies.
wtNIP Abrogated the NBS1-ATM Interaction: To investigate whether R9-conjugated NIP peptides could inhibit NBS1-ATM interactions, coimmunoprecipitation experiments were performed in cells treated with the NIP peptides. Four hours after peptide treatment, HeLa cells were harvested and subjected to immunoprecipitation using an anti-NBS1 antibody. The immunoprecipitates were then blotted with anti-ATM, NBS1, and MRE11 antibodies.

[1] = test system: γ-H2AX foci in HeLa cells; assay: IR-induced γ-H2AX focus formation, HeLa; format: cell-based, human
From the text: (§1) Error bars represent +/−1 SD, graphed are the mean of three independent experiments.
(§2) wtNIP Inhibits IR-Induced γ-H2AX and NBS1 pSer343 Focus Formation: One of the earliest responses to IR-induced DNA damage is the formation of γ-H2AX foci, which requires functional ATM (Burma et al., 2001; Furuta et al., 2003). […] Immunofluorescence microscopy was used to detect the presence of γ-H2AX foci in mock-irradiated or irradiated cells in the presence of R9, wtNIP or scNIP. […] Therefore, IR-induced γ-H2AX focus formation can be inhibited by wt-NIP.

[2] = test system: γ-H2AX foci in DU-145 cells; assay: IR-induced γ-H2AX focus formation, DU-145; format: cell-based, human; conditions: 10 μM peptide, 6Gy
From the text: as §1, §2

[3] = test system: NBS1 phosphorylation on serine 343 in HeLa cells; assay: IR-induced NBS1 pSer343 focus formation, HeLa; format: cell-based, human
From the text: as §1
(§3) To further support the idea that wtNIP can inhibit ATM-mediated DNA damage pathways, IR-induced NBS1 focus formation, an event considered to be an ATM-dependent process at the sites of DSBs (Lim et al., 2000) was investigated. NBS1 foci are a result of ATM-mediated NBS1 phosphorylation on serine 343. […] The average number of foci in mock-irradiated HeLa cells was 6, 8, and 6 for R9, wtNIP, and scNIP, respectively.

[4] = test system: NBS1 phosphorylation on serine 343 in DU-145 cells; assay: IR-induced NBS1 pSer343 focus formation, DU-145; format: cell-based, human; conditions: DU-145, 10 μM peptide, 6Gy, 120 minutes
From the text: as §1, §3

[5] = test system: prostate cancer cell line DU-145; assay: Colony formation assay (radiosensitivity), DU-145; format: cell-based, human
Description: (§4) Colony number was determined with a dissecting microscope. […] The following formula was used: […]
Radiation survival curves were characterized based on Do to define the effect of NIP effect on radiosensitivity. D0 represents the mean lethal dose required for 37% survival and is a measure of the intrinsic radiosensitivity of the cell. D0 values for HeLa treated with wtNIP were 1.9 compared with 3.0 for cells treated with scNIP. To establish the statistical significance of wtNIP-induced radiosensitivity, Student's t test (paired two-sample for means) was incorporated. […] Significant differences (p<0.05) in clonogenic survival were observed between cells treated with wtNIP and those treated with DMEM, R9, or scNIP. The SER was 1.58. […] These observations have been confirmed in the prostate cancer cell line DU-145 with an SER of 1.46. Taken as a whole, they provide strong evidence for the radiosensitizing potential of the wtNIP peptide.

[6] = test system: M059J cells (defective DNA-PKcs); assay: Colony formation assay (radiosensitivity), M059J; format: cell-based
Description: as §4
(§5) To test this possibility, colonyforming assays were performed in cell lines with defective ATM (GM9607) or DNA-PKcs (M059J). […] Because GM9607 cells are ATM-deficient and have functional ATR and DNA-PKcs, these observations strongly indicate that wtNIP can specifically target ATM, but not ATR or DNA-PKcs, to achieve radiosensitization.

[7] = test system: GM9607 cells (defective ATM); assay: Colony formation assay (radiosensitivity), GM9607; format: cell-based, human
Description: as §4, §5

T1 sequence (Q13315 whole entry): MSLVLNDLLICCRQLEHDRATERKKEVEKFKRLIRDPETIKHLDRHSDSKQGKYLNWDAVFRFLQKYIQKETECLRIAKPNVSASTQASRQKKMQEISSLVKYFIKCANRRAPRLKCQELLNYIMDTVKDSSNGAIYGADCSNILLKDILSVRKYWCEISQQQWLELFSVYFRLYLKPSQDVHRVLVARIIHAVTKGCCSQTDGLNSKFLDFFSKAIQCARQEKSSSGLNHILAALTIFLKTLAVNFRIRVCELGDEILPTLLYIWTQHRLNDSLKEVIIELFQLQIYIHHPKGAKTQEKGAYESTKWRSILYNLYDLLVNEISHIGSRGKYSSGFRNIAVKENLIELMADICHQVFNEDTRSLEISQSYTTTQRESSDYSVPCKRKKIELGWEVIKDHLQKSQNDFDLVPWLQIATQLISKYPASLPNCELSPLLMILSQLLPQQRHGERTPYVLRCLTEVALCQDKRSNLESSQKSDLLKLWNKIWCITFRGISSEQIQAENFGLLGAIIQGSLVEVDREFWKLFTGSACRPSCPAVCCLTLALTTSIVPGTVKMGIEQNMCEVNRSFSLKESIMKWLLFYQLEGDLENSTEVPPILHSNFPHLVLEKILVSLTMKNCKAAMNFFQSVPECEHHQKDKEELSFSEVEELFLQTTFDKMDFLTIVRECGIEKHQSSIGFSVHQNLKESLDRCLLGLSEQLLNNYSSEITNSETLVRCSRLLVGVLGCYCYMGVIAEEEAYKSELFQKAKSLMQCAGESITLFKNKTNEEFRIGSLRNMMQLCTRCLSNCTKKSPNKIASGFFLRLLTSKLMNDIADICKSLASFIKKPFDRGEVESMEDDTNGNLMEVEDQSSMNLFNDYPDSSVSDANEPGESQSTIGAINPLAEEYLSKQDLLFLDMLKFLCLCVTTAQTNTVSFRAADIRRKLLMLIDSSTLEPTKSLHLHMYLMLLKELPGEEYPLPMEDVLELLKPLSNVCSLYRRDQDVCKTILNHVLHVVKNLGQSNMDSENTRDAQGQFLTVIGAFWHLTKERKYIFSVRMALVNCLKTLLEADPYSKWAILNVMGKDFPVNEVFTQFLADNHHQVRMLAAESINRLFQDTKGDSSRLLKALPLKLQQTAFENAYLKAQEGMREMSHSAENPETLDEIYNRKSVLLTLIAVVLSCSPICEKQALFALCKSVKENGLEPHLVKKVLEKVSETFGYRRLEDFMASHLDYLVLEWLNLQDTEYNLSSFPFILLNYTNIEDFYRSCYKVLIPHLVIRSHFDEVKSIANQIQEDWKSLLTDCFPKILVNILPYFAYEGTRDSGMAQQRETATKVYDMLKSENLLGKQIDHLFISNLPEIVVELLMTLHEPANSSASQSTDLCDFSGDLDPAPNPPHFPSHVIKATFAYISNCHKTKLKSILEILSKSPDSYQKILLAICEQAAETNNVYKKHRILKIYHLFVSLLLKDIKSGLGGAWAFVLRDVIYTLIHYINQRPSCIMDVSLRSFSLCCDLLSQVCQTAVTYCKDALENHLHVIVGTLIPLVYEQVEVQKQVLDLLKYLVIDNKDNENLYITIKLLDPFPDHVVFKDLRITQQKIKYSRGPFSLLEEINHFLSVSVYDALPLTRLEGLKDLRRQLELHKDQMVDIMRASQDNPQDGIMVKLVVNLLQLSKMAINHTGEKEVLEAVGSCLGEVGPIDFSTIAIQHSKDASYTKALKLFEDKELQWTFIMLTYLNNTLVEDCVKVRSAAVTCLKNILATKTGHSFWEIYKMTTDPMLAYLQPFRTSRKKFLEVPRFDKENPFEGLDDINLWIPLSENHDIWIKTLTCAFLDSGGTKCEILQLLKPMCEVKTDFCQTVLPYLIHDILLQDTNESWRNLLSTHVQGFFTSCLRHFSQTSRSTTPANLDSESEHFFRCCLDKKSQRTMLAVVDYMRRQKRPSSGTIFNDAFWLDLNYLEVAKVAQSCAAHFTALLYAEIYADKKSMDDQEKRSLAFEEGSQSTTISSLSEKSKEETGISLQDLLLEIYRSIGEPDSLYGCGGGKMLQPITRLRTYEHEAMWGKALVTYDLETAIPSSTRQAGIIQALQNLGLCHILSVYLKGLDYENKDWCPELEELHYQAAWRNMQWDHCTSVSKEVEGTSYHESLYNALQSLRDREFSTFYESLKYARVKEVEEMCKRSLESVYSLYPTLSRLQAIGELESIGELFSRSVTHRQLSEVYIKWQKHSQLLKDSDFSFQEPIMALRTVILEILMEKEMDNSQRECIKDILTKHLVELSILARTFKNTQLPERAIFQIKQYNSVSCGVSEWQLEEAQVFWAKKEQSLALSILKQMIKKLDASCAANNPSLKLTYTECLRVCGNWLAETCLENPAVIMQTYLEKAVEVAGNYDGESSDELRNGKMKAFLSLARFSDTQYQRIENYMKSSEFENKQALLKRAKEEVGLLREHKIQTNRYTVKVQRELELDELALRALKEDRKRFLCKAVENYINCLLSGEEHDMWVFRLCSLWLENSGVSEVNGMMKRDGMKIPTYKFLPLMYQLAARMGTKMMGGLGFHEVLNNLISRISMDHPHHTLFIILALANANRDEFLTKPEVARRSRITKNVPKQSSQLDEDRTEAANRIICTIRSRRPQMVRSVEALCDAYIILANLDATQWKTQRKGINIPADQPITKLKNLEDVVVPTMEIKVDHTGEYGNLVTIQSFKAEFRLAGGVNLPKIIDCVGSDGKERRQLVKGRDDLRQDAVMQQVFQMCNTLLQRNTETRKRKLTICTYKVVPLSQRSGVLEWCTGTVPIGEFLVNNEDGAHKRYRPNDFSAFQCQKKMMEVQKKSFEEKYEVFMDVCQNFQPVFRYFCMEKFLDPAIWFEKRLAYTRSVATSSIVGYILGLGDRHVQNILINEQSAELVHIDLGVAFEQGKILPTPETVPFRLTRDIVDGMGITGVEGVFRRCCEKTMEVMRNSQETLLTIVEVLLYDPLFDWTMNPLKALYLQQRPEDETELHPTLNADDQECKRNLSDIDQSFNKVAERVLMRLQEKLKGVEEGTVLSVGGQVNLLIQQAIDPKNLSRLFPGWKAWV

CC(C)C[C@H](NC(=O)[C@H](CC(=O)O)NC(=O)[C@H](CC(=O)O)NC(=O)[C@H](C)NC(=O)[C@H](CC(C)C)NC(=O)[C@H](CO)NC(=O)[C@H](CCC(=O)O)NC(=O)[C@H](CCC(=O)O)NC(=O)[C@H](CCCCN)NC(=O)[C@H](CCCNC(=N)N)NC(=O)[C@H](CCCNC(=N)N)NC(=O)[C@H](CCCNC(=N)N)NC(=O)[C@H](CCCNC(=N)N)NC(=O)[C@H](CCCNC(=N)N)NC(=O)[C@H](CCCNC(=N)N)NC(=O)[C@H](CCCNC(=N)N)NC(=O)[C@H](CCCNC(=N)N)NC(=O)[C@H](CCCNC(=N)N)NC(=O)CCCC[C@@H]1SC[C@@H]2NC(=O)N[C@@H]21)C(=O)O [wtNIP] (Biotin-RRRRRRRRRKEESLADDL-OH)
presence of peptides in cells (HeLa cells): strong distribution | ATM-NBS1 association (anti-NBS1 immunoprecipitation, anti-ATM blot) (NBS1-ATM interaction; HeLa cells treated with IR): effect similar to that in unirradiated cells | ATM-NBS1 association (anti-NBS1 immunoprecipitation, anti-ATM blot) (NBS1-ATM interaction; HeLa cells, four hours after peptide treatment, unirradiated): NBS1 was no longer able to bring down ATM | average number of γ-H2AX foci/nucleus ([1]; 10 μM peptide, 30 minutes after 6Gy IR): 6.9 foci/nucleus | inhibition of γ-H2AX foci formation ([1]; 30 minutes after treatment with 6Gy IR): can inhibit γ-H2AX foci formation | IR-induced γ-H2AX focus formation [2]: significantly reduced H2AX foci/nucleus | NBS1 pSer343 foci per nucleus ([3]; HeLa cells after treatment with 6-Gy IR): 6 foci per nucleus | NBS1 phosphorylation (anti-phospho-Ser343 NBS1 antibody) ([3]; compared with R9 or scNIP treated cells): significantly inhibited | average number of NBS1 pSer343 foci ([3]; mock-irradiated HeLa cells): 8 | IR-induced NBS1 phosphorylation [4]: abrogates IR-induced NBS1 phosphorylation | SER [5]: 1.46 | SER [6]: 1.83 | change in radiosensitivity [6]: increase in radiosensitivity | change in radiosensitivity [7]: no change in radiosensitivity
